Assay results published in US8771944B2, “Use of micro-RNA as a biomarker of immunomodulatory drug activity” (Celgene Corporation, priority 2007, dated 2014).

How the values were obtained:
[1] = system: CD34+ hematopoietic precursor cells; experiment: miRNA differential expression profiling (Ambion Bioarrays) in CD34+ cells; format: cell-based; details: CD34+ hematopoietic precursor model
Excerpt: A CD34^+ hematopoietic precursor cell line was utilized to examine miRNA biomarker expression upon treatment with an immunomodulatory compound. CD34^+ cells used in preclinical studies were purchased from a commercial supplier (Lonza), isolated by positive immunomagnetic selection from bone marrow. In clinical studies, CD34^+ cells can be purified by positive immunomagnetic selection or by flow cytometric immunosorting from bone marrow or peripheral blood using conventional methodologies.
CD34^+ cells were expanded for 6 days in Iscove's DMEM media (Invitrogen) with 20% BIT serum substitute (StemCell Technologies) in the presence of SCF (100 ng/ml), Flt-3 ligand (100 ng/ml), and IL-3 (20 ng/ml) and then differentiated for 6 days in Iscove's/20% BIT containing SCF (50 ng/ml) and erythropoietin (2 U/ml) in the presence of 0.1% DMSO, 1 or 10 uM the immunomodulatory compound. Cells were grown in tissue culture and treated with the immunomodulatory compound according to methods known in the art. […]
The expression array method detected two miRNAs that were regulated by administration of immunomodulatory agents in the CD34^+ hematopoietic precursor model.

CD34+ cells = experiment: qRT-PCR of miR-130a and miR-146b in CD34+ cell cultures; format: cell-based; details: 6 days, 1 or 10 μm
Protocol: CD34^+ cells were expanded for 6 days in Iscove's DMEM media (Invitrogen) with 20% BIT serum substitute (StemCell Technologies) in the presence of SCF (100 ng/ml), Flt-3 ligand (100 ng/ml), and IL-3 (20 ng/ml) and then differentiated for 6 days in Iscove's/20% BIT containing SCF (50 ng/ml) and erythropoietin (2 U/ml) in the presence of 0.1% DMSO, 1 or 10 uM the immunomodulatory compound. Cells were grown in tissue culture and treated with the immunomodulatory compound according to methods known in the art.
To quantitate selected miRNAs with qRT-PCR, purified miRNA was analyzed using a TaqmanR microRNA Assay (Applied Biosystems). Five ng of purified miRNA was subjected to qRT-PCR with TaqmanR miRNA assay according to manufacturers instructions. Alternatively, the procedure may be achieved by using miRNA-specific reverse transcription and PCR primers with standard buffers, reagents, and methods.
Levels of miR-130a and miR-146b were determined using qRT-PCR as described above.

Namalwa cells [2] = experiment: miRNA expression profile / qRT-PCR of miR-143 and miR-145 in Namalwa cells; format: cell-based; details: 10 μM, 6 or 24 hours, FIG. 2
Protocol: An experiment similar to described above in Sections 6.1-6.5 was performed with a Namalwa lymphoma cell line model. The Namalwa Burkitt's lymphoma cell line was purchased from ATCC and grown in RPMI with 10% fetal bovine serum according to standard tissue culture methods known in the art.
Namalwa cells grown as above were treated for 6 or 24 hours with either 0.1% DMSO, 10 μM 1,3-dioxo-2-(2,6-dioxopiperidin-3-yl)-4-aminoisoindoline, or the HDAC inhibitor TSA 1 μM. Cells were harvested at indicated times and then miRNA was purified as outlined in previous sections.
miRNA expression profiles in Namalwa cells treated with immunomodulatory compounds were generated using methods similar to that described in Section 6.3.
Levels of miR-145 and miR-143 were determined using qRT-PCR. Purified miRNA was analyzed using a TaqmanR microRNA expression assay (Applied Biosystems). Five ng of purified miRNA was subjected to qRT-PCR with TaqmanR miRNA assays for miR-143 and miR-145 according to manufacturers instructions. The procedure may be achieved by using miRNA reverse transcription and PCR primers with standard buffers, reagents, and methods.

[3] = cited from earlier work
Namalwa cells [4] = experiment: Agilent miRNA array v2, lenalidomide-treated Namalwa cells; format: cell-based, human; details: for miR-143 Fold Increase / miR-145 Fold Increase: Namalwa cells
Protocol: (§1) Additional assays were performed to determine the effects of lenalidomide (1-oxo-2-(2,6-dioxopiperidin-3-yl)-4-aminoisoindoline) administration to various cell cultures on the expression of miRNAs. The miRNAs were detected using the Agilent miRNA array v2, which contains probes for 760 human miRNAs. […] was isolated using the Qiagen miRNeasy kit, total RNA (100 ng) was dephosphorylated and ligated with pCp-Cy3. Labeled RNA was purified and hybridized to Agilent miRNA arrays.
Namalwa cells: Lenalidomide was added to Namalwa cells at a concentration of 0.1 μm, 1 μm, or 10 μm. The miRNA levels were measured at 24 and 48 hours after addition of the lenalidomide. The results with this array confirmed the upregulation of miR-143 and miR-145 in Namalwa cells in a dose-dependent response to administration of 1-oxo-2-(2,6-dioxopiperidin-3-yl)-4-aminoisoindoline (Table 2).

HL60 cells = experiment: Agilent miRNA array v2, lenalidomide-treated HL60 cells; format: cell-based, human; details: for miR-99b Fold Increase / miR-125a Fold Increase / miR-143 Fold Increase / miR-145 Fold Increase / miR-146b Fold Increase: HL-60 cells
Protocol: as §1
HL60 cells: The addition of lenalidomide (1-oxo-2-(2,6-dioxopiperidin-3-yl)-4-aminoisoindoline) to a cell culture from an acute myelogenous leukemia (AML) cell line (HL60) was also shown to upregulate a number of miRNAs.

H929 cells = experiment: Agilent miRNA array v2, lenalidomide-treated H929 cells; format: cell-based, human; details: for miR-204 Fold Increase / miR-424 Fold Increase / miR-503 Fold Increase: H929 cells
Protocol: as §1

[5] = Namalwa cells, 0.1, 1 or 10 μm, 24 and 48 hours, dose-dependent response
[6] = 24 hour treatment, 0.1 uM lenalidomide
[7] = 24 hour treatment, 1 uM lenalidomide
[8] = 24 hour treatment, 10 uM lenalidomide
[9] = 48 hour treatment, 0.1 uM lenalidomide
[10] = 48 hour treatment, 1 uM lenalidomide
[11] = HL60 acute myelogenous leukemia cell line
[12] = HL60 cells, dose dependent manner at both 24 and 48 hours
[13] = 24 hour treatment, Lenalidomide 0.1 uM
[14] = 24 hour treatment, Lenalidomide 1.0 uM
[15] = 24 hour treatment, Lenalidomide 10.0 uM
[16] = 48 hour treatment, Lenalidomide 0.1 uM
[17] = 48 hour treatment, Lenalidomide 1.0 uM
[18] = 48 hour treatment, Lenalidomide 10.0 uM
[19] = H929 multiple myeloma cell line, 24 and 48 hours

In the case of `Nc1cccc2c1C(=O)N(C1CCC(=O)NC1=O)C2=O` (stereo not drawn) [1,3-dioxo-2-(2,6-dioxopiperidin-3-yl)-4-aminoisoindoline], the “miR-130a expression change (expression array)” value [1] is reported as “upregulated”, the “miR-146b expression change (expression array)” value [1] is reported as “upregulated” and the “miR-146b expression (qRT-PCR) compared to DMSO control” value (CD34+ cells; FIG. 1A) is reported as “upregulation”. The “miR-130a expression (qRT-PCR) compared to DMSO control” value (CD34+ cells; FIG. 1B) was “upregulation”, the miR-143 expression change (Namalwa cells [2]) was “upregulation” and the miR-145 expression change (Namalwa cells [2]) was “upregulation”.

For `Nc1cccc2c1CN(C1CCC(=O)NC1=O)C2=O` (stereo not drawn) [Form E, 3-(4-amino-1-oxo-1,3 dihydro-isoindol-2-yl)-piperidene-2,6-dione], the “stability of polymorphic form in aqueous solvent systems” value [3] is given as “most stable form”.

In the case of `Nc1cccc2c1CN(C1CCC(=O)NC1=O)C2=O` (stereo not drawn) [lenalidomide, 1-oxo-2-(2,6-dioxopiperidin-3-yl)-4-aminoisoindoline], the miR-143 expression change (Namalwa cells [4]; [5]) is reported as “upregulation”, the miR-145 expression change (Namalwa cells [4]; [5]) is reported as “upregulation” and the “miR-143 Fold Increase” value (Namalwa cells [4]; [6]) is reported as 2.29 fold. The “miR-145 Fold Increase” value (Namalwa cells [4]; [6]) was 2.34 fold, the “miR-143 Fold Increase” value (Namalwa cells [4]; [7]) was 3.81 fold and the “miR-145 Fold Increase” value (Namalwa cells [4]; [7]) was 4.16 fold. The “miR-143 Fold Increase” value (Namalwa cells [4]; [8]) was 4.69 fold, the “miR-145 Fold Increase” value (Namalwa cells [4]; [8]) was 4.96 fold and the “miR-143 Fold Increase” value (Namalwa cells [4]; [9]) was 2.31 fold. The “miR-145 Fold Increase” value (Namalwa cells [4]; [9]) was 2.53 fold, the “miR-143 Fold Increase” value (Namalwa cells [4]; [10]) was 4.68 fold and the “miR-145 Fold Increase” value (Namalwa cells [4]; [10]) was 5.12 fold. For the same compound, the miR-143 expression change (HL60 cells; [11]) was “upregulated”, the miR-145 expression change (HL60 cells; [11]) was “upregulated” and the miR-99b expression change (HL60 cells; [12]) was “upregulated”. The miR-125a expression change (HL60 cells; [12]) was “upregulated”, the miR-146b expression change (HL60 cells; [12]) was “upregulated” and the “miR-99b Fold Increase” value (HL60 cells; [13]) was 1.81 fold. For the same compound, the “miR-125a Fold Increase” value (HL60 cells; [13]) was 1.56 fold, the “miR-143 Fold Increase” value (HL60 cells; [13]) was 1.42 fold and the “miR-145 Fold Increase” value (HL60 cells; [13]) was 1.33 fold. The “miR-146b Fold Increase” value (HL60 cells; [13]) was 2.28 fold, the “miR-99b Fold Increase” value (HL60 cells; [14]) was 2.37 fold and the “miR-125a Fold Increase” value (HL60 cells; [14]) was 1.93 fold. For the same compound, the “miR-143 Fold Increase” value (HL60 cells; [14]) was 1.56 fold, the “miR-145 Fold Increase” value (HL60 cells; [14]) was 1.62 fold and the “miR-146b Fold Increase” value (HL60 cells; [14]) was 2.99 fold. For the same compound, the “miR-99b Fold Increase” value (HL60 cells; [15]) was 2.53 fold, the “miR-125a Fold Increase” value (HL60 cells; [15]) was 2.04 fold and the “miR-143 Fold Increase” value (HL60 cells; [15]) was 1.63 fold. The “miR-145 Fold Increase” value (HL60 cells; [15]) was 1.77 fold, the “miR-146b Fold Increase” value (HL60 cells; [15]) was 3.29 fold and the “miR-99b Fold Increase” value (HL60 cells; [16]) was 1.99 fold. For the same compound, the “miR-125a Fold Increase” value (HL60 cells; [16]) was 1.72 fold, the “miR-143 Fold Increase” value (HL60 cells; [16]) was 1.96 fold and the “miR-145 Fold Increase” value (HL60 cells; [16]) was 1.89 fold. The “miR-146b Fold Increase” value (HL60 cells; [16]) was 4.38 fold, the “miR-99b Fold Increase” value (HL60 cells; [17]) was 2.45 fold and the “miR-125a Fold Increase” value (HL60 cells; [17]) was 2.05 fold. For the same compound, the “miR-143 Fold Increase” value (HL60 cells; [17]) was 2.40 fold, the “miR-145 Fold Increase” value (HL60 cells; [17]) was 2.27 fold and the “miR-146b Fold Increase” value (HL60 cells; [17]) was 7.16 fold. For the same compound, the “miR-99b Fold Increase” value (HL60 cells; [18]) was 2.69 fold, the “miR-125a Fold Increase” value (HL60 cells; [18]) was 2.24 fold and the “miR-143 Fold Increase” value (HL60 cells; [18]) was 2.25 fold. For the same compound, the “miR-145 Fold Increase” value (HL60 cells; [18]) was 2.34 fold, the “miR-146b Fold Increase” value (HL60 cells; [18]) was 7.07 fold and the “miR-204 Fold Increase” value (H929 cells; [13]) was 1.75 fold. For the same compound, the “miR-424 Fold Increase” value (H929 cells; [13]) was 1.50 fold, the “miR-503 Fold Increase” value (H929 cells; [13]) was 1.61 fold and the “miR-204 Fold Increase” value (H929 cells; [14]) was 2.20 fold. For the same compound, the “miR-424 Fold Increase” value (H929 cells; [14]) was 2.08 fold, the “miR-503 Fold Increase” value (H929 cells; [14]) was 2.37 fold and the “miR-204 Fold Increase” value (H929 cells; [15]) was 2.00 fold. The “miR-424 Fold Increase” value (H929 cells; [15]) was 2.10 fold, the “miR-503 Fold Increase” value (H929 cells; [15]) was 2.44 fold and the “miR-204 Fold Increase” value (H929 cells; [16]) was 2.61 fold. The “miR-424 Fold Increase” value (H929 cells; [16]) was 1.71 fold, the “miR-503 Fold Increase” value (H929 cells; [16]) was 1.89 fold and the “miR-204 Fold Increase” value (H929 cells; [17]) was 4.30 fold. The “miR-424 Fold Increase” value (H929 cells; [17]) was 3.08 fold, the “miR-503 Fold Increase” value (H929 cells; [17]) was 3.80 fold and the “miR-204 Fold Increase” value (H929 cells; [18]) was 4.45 fold. The “miR-424 Fold Increase” value (H929 cells; [18]) was 3.36 fold, the “miR-503 Fold Increase” value (H929 cells; [18]) was 4.05 fold and the miR-204 expression change (H929 cells; [19]) was “increase in expression in a dose dependent manner”. The miR-424 expression change (H929 cells; [19]) was “increase in expression in a dose dependent manner” and the miR-503 expression change (H929 cells; [19]) was “increase in expression in a dose dependent manner”.
